These are literature values, as cited in paper PMC4148150 (Journal of Medicinal Chemistry, 2014).

The conditions of this data set: mice, oral dosing.

With `CC(=O)N1CCC(NC(=O)NC23CC4CC(CC(C4)C2)C3)CC1` [APAU, 1-(1-acetypiperidin-4-yl)-3-adamantanylurea], the PK-AUC was 0.183 µM·h.

In the case of `CS(=O)(=O)N1CCC(NC(=O)Nc2ccc(OC(F)(F)F)cc2)CC1` [TUPS, 1-(1-methylsulfonyl-piperidin-4-yl)-3-(4-trifluoromethoxyphenyl)-urea], the PK-AUC was 5.3 µM·h.
